Laboratory results as given in ChEMBL document CHEMBL4837230, “Thiophene-2-carboxamide derivatives of anthraquinone: A new potent antitumor chemotype” (Eur J Med Chem, 2021).
The source made the active and inactive calls. The calls are words filed in the database; no cut-off is given here.

Key:
[1] = Cytotoxicity in human DND41 cells assessed as reduction in cell viability incubated for 72 hrs by MTT assay; format: functional, cell-based; conditions: DND41, 72 h
NCI-H460 = assay: Cytotoxicity in human NCI-H460 cells assessed as reduction in cell viability incubated for 72 hrs by MTT assay; format: functional, cell-based; conditions: NCI-H460, 72 h
CAPAN-1 = assay: Cytotoxicity in human CAPAN-1 cells assessed as reduction in cell viability incubated for 72 hrs by MTT assay; format: functional, cell-based; conditions: CAPAN-1, 72 h
Fibroblast = assay: Cytotoxicity in human Fibroblast cells assessed as reduction in cell viability incubated for 72 hrs by MTT assay; format: functional, cell-based
K562 [2] = assay: Induction of cell cycle arrest in human K562 cells assessed as increase in accumulation at sub-G1 phase at 5 uM after 48 hrs by propidium iodide staining based flow cytometric analysis (reference value: 8.4%); format: functional
K562 [3] = assay: Induction of cell cycle arrest in human K562 cells assessed as increase in accumulation at sub-G1 phase at 5 uM after 24 hrs by propidium iodide staining based flow cytometric analysis (reference value: 8.4%); format: functional
K562 [4] = assay: Induction of cell cycle arrest in human K562 cells assessed as increase in accumulation at sub-G1 phase at 2.5 uM after 48 hrs by propidium iodide staining based flow cytometric analysis (reference value: 8.4%); format: functional
K562 [5] = assay: Induction of cell cycle arrest in human K562 cells assessed as increase in accumulation at sub-G1 phase at 2.5 uM after 24 hrs by propidium iodide staining based flow cytometric analysis (reference value: 8.4%); format: functional
K562 [6] = assay: Induction of cell cycle arrest in human K562 cells assessed as increase in accumulation at sub-G1 phase at 0.5 uM after 48 hrs by propidium iodide staining based flow cytometric analysis (reference value: 8.4%); format: functional
K562 [7] = assay: Induction of cell cycle arrest in human K562 cells assessed as increase in accumulation at sub-G1 phase at 0.5 uM after 24 hrs by propidium iodide staining based flow cytometric analysis (reference value: 8.4%); format: functional
HL-60 = assay: Cytotoxicity in human HL-60 cells assessed as reduction in cell viability incubated for 72 hrs by MTT assay; format: functional, cell-based; conditions: HL-60, 72 h
HeLa = assay: Cytotoxicity in human HeLa cells assessed as reduction in cell viability incubated for 72 hrs by MTT assay; format: functional, cell-based
HCT-116 [8] = assay: Cytotoxicity in human HCT-116 cells assessed as reduction in cell viability incubated for 72 hrs by MTT assay; format: functional, cell-based; conditions: HCT-116, 72 h
HCT-116 [9] = assay: Cytotoxicity against p53 knock out human HCT-116 cells assessed as reduction in cell viability incubated for 72 hrs by MTT assay; format: functional, cell-based; conditions: HCT-116, 72 h
[10] = Cytotoxicity in human K562/4 cells assessed as reduction in cell viability incubated for 72 hrs by MTT assay; format: functional, cell-based; conditions: K562/4, 72 h
[11] = Resistance index, ratio of IC50 for cytotoxicity against p53 knock out human HCT-116 cells to IC50 for cytotoxicity against human HCT-116 cells; format: functional
[12] = Resistance index, ratio of IC50 for cytotoxicity against human K562/4 cells to IC50 for cytotoxicity against human K562 cells; format: functional
Calf thymus DNA = assay: Binding affinity to calf thymus double strand DNA incubated for 5 mins by spectrophotometry; format: nucleic-acid assay; conditions: Bos taurus
[13] = target: T1, DNA topoisomerase 1 (Homo sapiens) (UniProt P11387); assay: Inhibition of topoisomerase 1 (unknown origin) assessed as relaxation of supercoiled plasmid pBR322 DNA at 1 to 5 uM incubated for 30 mins by electrophoresis; conditions: dose 1-5 µM
T1 sequence (whole entry): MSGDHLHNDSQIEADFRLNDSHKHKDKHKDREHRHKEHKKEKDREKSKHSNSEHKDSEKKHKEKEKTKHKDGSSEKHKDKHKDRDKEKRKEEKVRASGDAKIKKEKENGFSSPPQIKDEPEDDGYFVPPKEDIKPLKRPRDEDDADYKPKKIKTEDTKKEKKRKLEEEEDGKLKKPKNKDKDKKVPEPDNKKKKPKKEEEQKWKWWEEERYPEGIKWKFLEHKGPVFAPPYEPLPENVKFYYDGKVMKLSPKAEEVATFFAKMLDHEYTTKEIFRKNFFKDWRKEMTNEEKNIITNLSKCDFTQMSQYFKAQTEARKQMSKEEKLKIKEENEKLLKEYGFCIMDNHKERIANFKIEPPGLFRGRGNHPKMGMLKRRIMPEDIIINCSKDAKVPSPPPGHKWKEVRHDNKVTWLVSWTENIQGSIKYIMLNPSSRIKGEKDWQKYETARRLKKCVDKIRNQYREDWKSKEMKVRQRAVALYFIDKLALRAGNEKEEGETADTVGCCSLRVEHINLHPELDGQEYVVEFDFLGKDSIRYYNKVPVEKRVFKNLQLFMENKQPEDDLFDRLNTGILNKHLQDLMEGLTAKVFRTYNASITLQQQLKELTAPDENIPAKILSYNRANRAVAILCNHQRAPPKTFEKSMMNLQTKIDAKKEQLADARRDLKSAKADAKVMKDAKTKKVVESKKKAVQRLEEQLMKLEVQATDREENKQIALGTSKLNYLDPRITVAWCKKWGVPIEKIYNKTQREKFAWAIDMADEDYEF

K562 [14] = assay: Induction of mitochondrial membrane potential loss in human K562 cells at 7.5 uM after 6 hrs by Mitotracker Red dye based flow cytometric analysis; format: functional, cell-based
[15] = Drug localization in cytoplasm of mouse NIH3T3 cells at 1 uM incubated for 5 to 60 mins by laser confocal microscopy; format: ADME, cell-based; conditions: nih3t3, 1 µM, time 5-60 min
[16] = Drug localization in lysosome of mouse NIH3T3 cells at 1 uM incubated for 5 mins by lyso-tracker red based confocal microscopic method; format: ADME, cell-based; conditions: nih3t3, 5 min
[17] = Drug localization in lysosome of mouse NIH3T3 cells at 1 uM incubated for 60 mins by lyso-tracker red based confocal microscopic method; format: ADME, cell-based; conditions: nih3t3, 1 h
[18] = Drug localization in mitochondria of mouse NIH3T3 cells at 1 uM measured after 60 mins by MitoTracker red based confocal microscopic method; format: ADME; conditions: nih3t3, 1 h
K562 [19] = assay: Induction of apoptosis in human K562 cells assessed as activation of casapse-3 cleavage measured after 24 hrs by Western blot analysis; format: functional, cell-based; conditions: dose 2.5 µM
K562 [20] = assay: Induction of apoptosis in human K562 cells assessed as activation of casapse-9 cleavage measured after 24 hrs by Western blot analysis; format: functional, cell-based
K562 [21] = assay: Induction of apoptosis in human K562 cells assessed as activation of PARP cleavage measured after 24 hrs by Western blot analysis; format: functional, cell-based
[22] = Drug localization in nuclei of mouse NIH3T3 cells at 1 uM incubated for 5 to 60 mins by Hoechst 33258 staining based laser confocal microscopy; format: ADME, cell-based; conditions: nih3t3, 1 µM, time 5-60 min
[23] = Drug localization in mitochondria of mouse NIH3T3 cells at 1 uM measured after 5 mins by MitoTracker red based confocal microscopic method; format: ADME; conditions: nih3t3, 5 min
K562 [24] = assay: Induction of ROS generation in human K562 cells at 5 uM after 30 to 60 mins by Deep Red dye based flow cytometry method; format: functional, cell-based; conditions: time 30-60 min

## COc1cccc2c1C(=O)c1c(O)c3c(c(O)c1C2=O)C[C@@](O)(C(=O)CO)C[C@@H]3O[C@H]1C[C@H](N)[C@H](O)[C@H](C)O1 [DOXORUBICIN]
[1]
  IC50: 0.7 µM
NCI-H460
  IC50: 0.4 µM
CAPAN-1
  IC50: 1.7 µM
Fibroblast
  IC50: 0.2 µM

## N[C@H]1CCN(C(=O)c2cc3c(O)c4c(c(O)c3o2)C(=O)c2ccccc2C4=O)C1
[1]
  IC50: 1.5 µM
NCI-H460
  IC50: > 20 µM
CAPAN-1
  IC50: > 20 µM
K562 [2]
  Activity: 48.7%
K562 [3]
  Activity: 40.2%
K562 [4]
  Activity: 23%
K562 [5]
  Activity: 24.2%
K562 [6]
  Activity: 7%
K562 [7]
  Activity: 14.8%
HL-60
  IC50: 0.7 µM
HeLa
  IC50: > 50 µM
HCT-116 [8]
  IC50: > 50 µM
HCT-116 [9]
  IC50: > 50 µM
[10]
  IC50: 0.6 µM
Fibroblast
  IC50: > 50 µM
[11]
  Ratio: 1
[12]
  Ratio: 1.2
Calf thymus DNA
  Activity: Active
[13]
  inhibition: Active
K562 [14]
  Activity: inactive
[15]
  Drug uptake: Active
[16]
  Drug uptake: Active
[17]
  Drug uptake: Active
[18]
  Drug uptake: Not Active
K562 [19]
  Activity: inactive
K562 [20]
  Activity: inactive
K562 [21]
  Activity: inactive
[22]
  Drug uptake: Not Active
[23]
  Drug uptake: Not Active
K562 [24]
  Activity: inactive

## NC1CCCN(C(=O)c2cc3c(O)c4c(c(O)c3s2)C(=O)c2ccccc2C4=O)C1 (racemic)
[1]
  IC50: 0.6 µM
NCI-H460
  IC50: 0.4 µM
CAPAN-1
  IC50: 1.2 µM
HL-60
  IC50: 0.4 µM

## NCCN(CCN)C(=O)c1cc2c(O)c3c(c(O)c2s1)C(=O)c1ccccc1C3=O
[1]
  IC50: 3.1 µM
NCI-H460
  IC50: 8.3 µM
CAPAN-1
  IC50: 16.8 µM
HL-60
  IC50: 14.1 µM

## O=C(N[C@H]1CCNC1)c1cc2c(O)c3c(c(O)c2s1)C(=O)c1ccccc1C3=O
[1]
  IC50: 1 µM
NCI-H460
  IC50: 3.5 µM
CAPAN-1
  IC50: 6.3 µM
HL-60
  IC50: 2.9 µM

## O=C(NC1CN2CCC1CC2)c1cc2c(O)c3c(c(O)c2s1)C(=O)c1ccccc1C3=O (stereo not drawn)
[1]
  IC50: 2.4 µM
NCI-H460
  IC50: > 20 µM
CAPAN-1
  IC50: 4.6 µM
HL-60
  IC50: 7.3 µM

## Cc1c(C(=O)N2CC[C@@H](N)C2)sc2c(O)c3c(c(O)c12)C(=O)c1ccccc1C3=O
[1]
  IC50: 1.4 µM
NCI-H460
  IC50: 1.2 µM
CAPAN-1
  IC50: 2 µM
HL-60
  IC50: 1.8 µM

## Cc1c(C(=O)N2CC[C@H](N)C2)sc2c(O)c3c(c(O)c12)C(=O)c1ccccc1C3=O
[1]
  IC50: 1.6 µM
NCI-H460
  IC50: 5 µM
CAPAN-1
  IC50: 2.2 µM
HL-60
  IC50: 0.2 µM

## N[C@@H]1CN(C(=O)c2cc3c(O)c4c(c(O)c3s2)C(=O)c2ccccc2C4=O)C[C@H]1N
[1]
  IC50: 10.9 µM
NCI-H460
  IC50: 16.1 µM
CAPAN-1
  IC50: > 20 µM
HL-60
  IC50: > 20 µM

## O=C(NC1CCCNC1)c1cc2c(O)c3c(c(O)c2s1)C(=O)c1ccccc1C3=O (racemic)
[1]
  IC50: 1 µM
NCI-H460
  IC50: 1.4 µM
CAPAN-1
  IC50: 2.3 µM
HL-60
  IC50: 1.1 µM

## NCCNC(=O)c1cc2c(O)c3c(c(O)c2s1)C(=O)c1ccccc1C3=O
[1]
  IC50: 3.7 µM
NCI-H460
  IC50: 8.3 µM
CAPAN-1
  IC50: > 20 µM
HL-60
  IC50: > 20 µM

## O=C(N[C@@H]1CCNC1)c1cc2c(O)c3c(c(O)c2s1)C(=O)c1ccccc1C3=O
[1]
  IC50: 1.3 µM
NCI-H460
  IC50: 4.1 µM
CAPAN-1
  IC50: 5.8 µM
HL-60
  IC50: 2.7 µM

## O=C(NC1CCNCC1)c1cc2c(O)c3c(c(O)c2s1)C(=O)c1ccccc1C3=O
[1]
  IC50: 1.6 µM
NCI-H460
  IC50: 1.4 µM
CAPAN-1
  IC50: 0.6 µM
HL-60
  IC50: 3.2 µM

## N[C@H]1CCN(C(=O)c2csc3c(O)c4c(c(O)c23)C(=O)c2ccccc2C4=O)C1
[1]
  IC50: 2.6 µM

## N[C@@H]1CCN(C(=O)c2cc3c(O)c4c(c(O)c3s2)C(=O)c2ccccc2C4=O)C1
[1]
  IC50: 0.4 µM
NCI-H460
  IC50: 0.4 µM
CAPAN-1
  IC50: 1.5 µM
HL-60
  IC50: 1.1 µM
